Measured values taken from patent US12029744B2, “Bicyclic heteroaryl derivatives as ectonucleotide pyrophosphatase phosphodiesterase 1 inhibitors” (Riboscience LLC, priority 2019, dated 2024).

How the values were obtained:
HGS tumor model = assay: Anti-tumor activity in HGS tumor model; assay type: in vivo; details: animals treated with 20/kg of compound, day 42 after inoculation (vehicle group 645)
Source text: […]

ENPP1 = biological target: T1, ENPP1 (Homo sapiens, UniProt P22413); assay: Measurement of pNP-TMP hydrolysis by ENPP1 (enzyme activity assay, absorbance at 405 nm); assay type: biochemical; details: substrate pNP-TMP 500 μM, KM 232 μM; Ki from IC50 by Cheng-Prusoff; read-out: Ki (pNP-TMP)
T1 sequence (P22413 1-925): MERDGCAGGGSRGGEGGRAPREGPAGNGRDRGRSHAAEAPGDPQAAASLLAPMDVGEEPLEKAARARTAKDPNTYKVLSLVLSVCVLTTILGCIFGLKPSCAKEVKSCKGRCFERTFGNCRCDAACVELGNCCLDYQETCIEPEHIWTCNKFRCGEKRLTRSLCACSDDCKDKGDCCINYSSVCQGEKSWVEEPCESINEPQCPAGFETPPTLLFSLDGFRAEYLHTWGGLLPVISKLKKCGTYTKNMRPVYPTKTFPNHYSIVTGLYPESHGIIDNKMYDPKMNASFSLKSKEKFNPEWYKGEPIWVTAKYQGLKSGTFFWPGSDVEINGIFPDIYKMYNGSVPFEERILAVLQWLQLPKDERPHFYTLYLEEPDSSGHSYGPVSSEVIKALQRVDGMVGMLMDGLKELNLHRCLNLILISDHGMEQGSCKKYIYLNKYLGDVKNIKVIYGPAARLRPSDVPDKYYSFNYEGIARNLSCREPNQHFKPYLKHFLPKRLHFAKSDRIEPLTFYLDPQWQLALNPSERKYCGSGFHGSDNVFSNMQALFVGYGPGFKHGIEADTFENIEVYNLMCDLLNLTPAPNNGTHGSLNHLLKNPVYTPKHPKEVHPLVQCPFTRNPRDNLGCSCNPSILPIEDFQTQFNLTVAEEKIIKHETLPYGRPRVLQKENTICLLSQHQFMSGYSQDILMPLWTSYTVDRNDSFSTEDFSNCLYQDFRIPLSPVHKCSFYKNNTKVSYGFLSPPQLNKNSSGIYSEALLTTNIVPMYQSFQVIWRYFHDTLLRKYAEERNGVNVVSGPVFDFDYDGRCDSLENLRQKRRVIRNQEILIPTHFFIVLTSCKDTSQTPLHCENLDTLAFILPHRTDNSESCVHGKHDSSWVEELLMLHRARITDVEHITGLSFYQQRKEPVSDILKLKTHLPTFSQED
Method: Measurement of pNP-TMP Hydrolysis by ENPP1
p-Nitrophenyl thymidine 5′-monophosphate (pNP-TMP) is a synthesized substrate for ENPP1. The ENPP1 enzyme activity assay with pNP-TMP substrate was conducted as follows:
Incubation of ENPP1 with compounds was set at 25° C. for 10 min. […] For each compound dilution, wells with assay buffer (50 mM Tris-HCl, pH8.8, 250 mM NaCl, 0.1 mg/ml BSA, 1% DMSO) only but no ENPP1 were included as controls for subtraction of test compound derived absorbance at 405 nm.
Absorbance at 405 nm was recorded immediately in kinetic mode by PerkinElmer 2300 Enspire multimode plate reader.
For each inhibitor, the specific ENPP1 activity was calculated using the following equation: ENPP1 activity (pmol/min/μg)=Adjusted Vmax (OD405 nm/min)×conversion factor (pmol/OD405 nm)/amount of enzyme (μg)
Adjusted Vmax=V0×(Km+(S))/(S).
V0=(OD405 nm with ENPP1−OD405 nm ENPP1 blank)/minutes. OD405 nm was plotted, with blank subtracted, against time (minutes), the initial linear rate is V0. […]
The slope is the conversion factor. The percent ENPP1 activity for each sample was calculated using the following equation: % enzyme activity=sample enzyme activity/MAX Activity×100%.
To determine the IC50 for each compound, compound concentration values and percent enzyme activity values were inserted into GraphPad Prism (GraphPad Prism version 7.0 for Windows, GraphPad Software, La Jolla California USA, www.graphpad.com), and Prism's Transform analysis was used to convert the x-axis values (compound concentration) to logarithms. A sigmoidal variable slope nonlinear regression analysis was performed using the following equation: Y=Bottom+(Top−Bottom)/(1+10^[…])).

SMILES	tumor size (HGS tumor model) [mm3]	Ki (ENPP1) [µM]
C=CC(=O)N1CCN(CCCn2c(=O)c(-c3c(Cl)c(OC)cc(OC)c3Cl)cc3cnc(NC)nc32)CC1 [8-(3-(4-acryloylpiperazin-1-yl)propyl)-6-(2,6-dichloro-3,5-dimethoxyphenyl)-2-(methylamino)pyrido[2,3-d]pyrimidin-7(8H)-one]	55	
Cc1nc2nc(C(N)=O)ccc2n1Cc1ccc(B(O)O)cc1 [Compound 144, (4-((5-carbamoyl-2-methyl-1H-imidazo[4,5-b]pyridin-1-yl)methyl)phenyl)boronic acid]		< 0.01
COC(=O)c1ccc2c(c1)ncn2Cc1ccc(B(O)O)cc1 [Compound 41, 2,2,2-trifluoroacetic acid--(4-((5-(methoxycarbonyl)-1H-benzo[d]imidazol-1-yl)methyl)phenyl)boronic acid (1/1)]		< 0.1
N#Cc1ccc2c(ncn2Cc2ccc(B(O)O)cc2)n1 [Compound 70, 4-((5-cyanoimidazo[4,5-b]pyridin-1-yl)methyl)phenylboronic acid]		< 0.01
